The experiment has as its target Thymidylate kinase (Homo sapiens) (UniProt P23919). Kind of experiment: In Vitro inhibition of […] (TMPKh).
`Cc1cn([C@@H]2O[C@H](COP(=O)(O)O)[C@@H](CN)[C@H]2O)c(=O)[nH]c1=O` [Phosphoric acid mono-[3-aminomethyl-4-hydroxy-5-(5-methyl-2,4-dioxo-3,4-dihydro-2H-pyrimidin-1-yl)-tetrahydro-furan-2-ylmethyl] ester] registered a Ki of 280 µM.
With `Cc1cn([C@H]2C[C@H](CN)[C@@H](CO)O2)c(=O)[nH]c1=O` [1-(4-Aminomethyl-5-hydroxymethyl-tetrahydro-furan-2-yl)-5-methyl-1H-pyrimidine-2,4-dione], the affinity, expressed as Ki, was 220 µM.
Regarding `Cc1cn([C@H]2C[C@H](CN=[N+]=[N-])[C@@H](COP(=O)(O)O)O2)c(=O)[nH]c1=O` [Phosphoric acid mono-[3-azidomethyl-5-(5-methyl-2,4-dioxo-3,4-dihydro-2H-pyrimidin-1-yl)-tetrahydro-furan-2-ylmethyl] ester], the Ki came out at 32 µM.
With `Cc1cn([C@H]2C[C@H](CN=[N+]=[N-])[C@@H](CO)O2)c(=O)[nH]c1=O` [1-(4-Azidomethyl-5-hydroxymethyl-tetrahydro-furan-2-yl)-5-methyl-1H-pyrimidine-2,4-dione], the Ki was found to be 1040 µM.
For `Cc1cn([C@H]2C[C@H](CN)[C@@H](COP(=O)(O)O)O2)c(=O)[nH]c1=O` [Phosphoric acid mono-[3-aminomethyl-5-(5-methyl-2,4-dioxo-3,4-dihydro-2H-pyrimidin-1-yl)-tetrahydro-furan-2-ylmethyl] ester] the value was 4.7 µM.
The compound `Cc1cn([C@@H]2O[C@H](CO)[C@@H](CN)[C@H]2O)c(=O)[nH]c1=O` [1-(4-Aminomethyl-3-hydroxy-5-hydroxymethyl-tetrahydro-furan-2-yl)-5-methyl-1H-pyrimidine-2,4-dione] had a Ki of 110 µM.
The value for `Cc1cn([C@H]2C[C@H](CO)[C@@H](CO)O2)c(=O)[nH]c1=O` [1-(4,5-Bis-hydroxymethyl-tetrahydro-furan-2-yl)-5-methyl-1H-pyrimidine-2,4-dione] was 420 µM; that for `Cc1cn([C@H]2C[C@H](CF)[C@@H](COP(=O)(O)O)O2)c(=O)[nH]c1=O` [Phosphoric acid mono-[3-fluoromethyl-5-(5-methyl-2,4-dioxo-3,4-dihydro-2H-pyrimidin-1-yl)-tetrahydro-furan-2-ylmethyl] ester] was 40 µM; that for `Cc1cn([C@H]2C[C@H](CF)[C@@H](CO)O2)c(=O)[nH]c1=O` [1-(4-Fluoromethyl-5-hydroxymethyl-tetrahydro-furan-2-yl)-5-methyl-1H-pyrimidine-2,4-dione] was 970 µM.
`Cc1cn([C@H]2C[C@H](CO)[C@@H](COP(=O)(O)O)O2)c(=O)[nH]c1=O` [Phosphoric acid mono-[3-hydroxymethyl-5-(5-methyl-2,4-dioxo-3,4-dihydro-2H-pyrimidin-1-yl)-tetrahydro-furan-2-ylmethyl] ester]: the Ki was 43.5 µM.

(Values after BindingDB's records for doi:10.1021/jm021108n (Ghent University, 2003).)
